According to paper PMC4468202, “Improved Visualization and Specific Binding for Metabotropic Glutamate Receptor Subtype 1 (mGluR1) Using [^11C]ITMM with Ultra-High Specific Activity in Small-Animal PET” (PLoS ONE, 2015):
Values joined by “and” are separate entries in the source; they are usually repeats but may differ in a detail not shown here. Equal entries are not always repeated.

Biological target: mGluR1 (Rattus norvegicus, UniProt P23385)
Assay: Two-tissue compartment model (2TCM) kinetic analysis of PET data
Type: in vivo
Parameters: from tissue; host or cells: living SD rat brain (in vivo PET)
Experimental: Kinetic analysis of [^11C]ITMM was performed using the two-tissue compartment model (2TCM). The compartments correspond to the radioactivity concentrations of unchanged radioprobe in the plasma (C P), free and non-specifically bound radioprobe (C 1), and radioprobe specifically bound to receptors (C 2). The rate constants K 1 and k 2 correspond to the influx and outflux rates of the radioprobe across the blood-brain barrier. The rate constants k 3 and k 4 correspond to the rates of radioprobe transfer between the C 1 and C 2 compartments. The blood volume fraction (vB) in the rat brain was fixed at 2% [28]. The four rate constants of the 2TCM were obtained by a nonlinear least squares fitting technique, using PMOD version 3.4 (PMOD Technologies).
The distribution of [^11C]ITMM in free or tissue compartments was described using the concept of free ligand distribution volume (DV f) or V T, which was defined by the following equations: DVf=K1/k2 (1) VT=DVf(1+k3/k4) (2)
The nondisplacable binding potential (BP ND) is defined using the index of specific bindings of the radioprobe, meaning the receptor density (B max) to binding affinity (K D) ratio, which corresponds with the ratio of k 3 to k 4 in the 2TCM [26]. The BP ND is defined as follows: BPND=fND⋅Bmax/KD=k3/k4 (3) Here, f ND represents the tissue-free fraction of radioprobe in the nondisplacable compartment. Although the fraction of radioprobe that is unbound to plasma proteins was not measured in the present study, the value of f ND is close to 1.0 [29].

[1] = cingulate cortex, conventional SA
[2] = cingulate cortex, ultra-high SA
[3] = substantia nigra, conventional SA
[4] = substantia nigra, ultra-high SA

mGluR1, sequence (P23385 19-1199): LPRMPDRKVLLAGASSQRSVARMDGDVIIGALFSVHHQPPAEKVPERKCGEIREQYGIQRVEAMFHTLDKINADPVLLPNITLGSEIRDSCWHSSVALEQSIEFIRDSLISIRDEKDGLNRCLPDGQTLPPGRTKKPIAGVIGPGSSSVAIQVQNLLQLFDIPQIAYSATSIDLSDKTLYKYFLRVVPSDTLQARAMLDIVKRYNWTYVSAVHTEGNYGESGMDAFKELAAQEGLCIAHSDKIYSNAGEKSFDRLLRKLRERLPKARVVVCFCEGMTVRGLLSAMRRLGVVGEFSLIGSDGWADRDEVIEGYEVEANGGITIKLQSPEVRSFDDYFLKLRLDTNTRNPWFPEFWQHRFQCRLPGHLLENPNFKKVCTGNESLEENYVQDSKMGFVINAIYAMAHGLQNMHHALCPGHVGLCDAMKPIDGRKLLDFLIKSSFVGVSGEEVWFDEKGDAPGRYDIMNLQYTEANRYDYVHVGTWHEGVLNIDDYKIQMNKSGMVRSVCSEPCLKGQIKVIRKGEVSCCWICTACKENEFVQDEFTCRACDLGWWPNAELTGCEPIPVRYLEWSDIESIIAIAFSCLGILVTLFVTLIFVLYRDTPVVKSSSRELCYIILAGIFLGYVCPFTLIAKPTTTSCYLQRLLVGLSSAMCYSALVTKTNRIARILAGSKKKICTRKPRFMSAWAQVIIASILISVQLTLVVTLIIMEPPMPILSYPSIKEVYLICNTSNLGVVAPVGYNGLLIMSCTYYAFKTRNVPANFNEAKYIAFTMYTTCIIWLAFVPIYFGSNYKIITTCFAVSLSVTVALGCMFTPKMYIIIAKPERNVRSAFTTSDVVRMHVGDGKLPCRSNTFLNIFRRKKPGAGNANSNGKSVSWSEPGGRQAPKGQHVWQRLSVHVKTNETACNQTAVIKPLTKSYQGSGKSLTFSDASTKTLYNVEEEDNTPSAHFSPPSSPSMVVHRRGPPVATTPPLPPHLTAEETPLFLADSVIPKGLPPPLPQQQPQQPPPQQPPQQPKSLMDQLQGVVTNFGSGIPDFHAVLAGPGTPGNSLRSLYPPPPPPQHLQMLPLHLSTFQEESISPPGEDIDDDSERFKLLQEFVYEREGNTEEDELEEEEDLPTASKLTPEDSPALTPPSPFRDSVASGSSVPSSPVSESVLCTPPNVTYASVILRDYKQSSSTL

With `CC(C)Nc1cc(-c2csc(N(C)C(=O)c3ccc(O[11CH3])cc3)n2)ncn1` [[^11C]ITMM, N-[4-[6-(isopropylamino)pyrimidin-4-yl]-1,3-thiazol-2-yl]-4-[^11C]methoxy-N-methyl-benzamide] the “BP ND (k 3/k 4)” value (cerebellum, conventional SA) was 33.2 ± 1.4, the “DV f (K 1/k 2)” value (cerebellum, conventional SA) was 0.429 ± 0.020 and the “K 1” value (cerebellum, conventional SA) was 0.344 ± 0.010 mL/cm^3/min. For the same molecule, the “V T” value (cerebellum, conventional SA) was 14.56 ± 0.50 mL/cm^3, the “k 2” value (cerebellum, conventional SA) was 0.811 ± 0.045 min⁻¹ and the “k 3” value (cerebellum, conventional SA) was 0.619 ± 0.035 min⁻¹. The “k 4” value (cerebellum, conventional SA) was 0.019 ± 0.001 min⁻¹, the “BP ND (k 3/k 4)” value (cerebellum, ultra-high SA) was 48.9 ± 2.6 and the “DV f (K 1/k 2)” value (cerebellum, ultra-high SA) was 0.336 ± 0.020. For the same molecule, the “K 1” value (cerebellum, ultra-high SA) was 0.366 ± 0.019 mL/cm^3/min, the “V T” value (cerebellum, ultra-high SA) was 16.69 ± 0.92 mL/cm^3 and the “k 2” value (cerebellum, ultra-high SA) was 1.112 ± 0.098 min⁻¹. For the same molecule, the “k 3” value (cerebellum, ultra-high SA) was 0.799 ± 0.035 min⁻¹, the “k 4” value (cerebellum, ultra-high SA) was 0.016 ± 0.000 min⁻¹ and the “BP ND (k 3/k 4)” value [1] was 21.7 ± 1.2. For the same molecule, the “DV f (K 1/k 2)” value [1] was 0.302 ± 0.021, the “K 1” value [1] was 0.312 ± 0.008 mL/cm^3/min and the “V T” value [1] was 6.76 ± 0.25 mL/cm^3. For the same molecule, the “k 2” value [1] was 1.062 ± 0.086 min⁻¹, the “k 3” value [1] was 0.643 ± 0.053 min⁻¹ and the “k 4” value [1] was 0.030 ± 0.001 min⁻¹. The “BP ND (k 3/k 4)” value [2] was 32.8 ± 1.9, the “DV f (K 1/k 2)” value [2] was 0.257 ± 0.008 and the “K 1” value [2] was 0.339 ± 0.019 mL/cm^3/min. For the same molecule, the “V T” value [2] was 8.66 ± 0.45 mL/cm^3, the “k 2” value [2] was 1.317 ± 0.054 min⁻¹ and the “k 3” value [2] was 0.740 ± 0.036 min⁻¹. The “k 4” value [2] was 0.023 ± 0.001 min⁻¹, the “BP ND (k 3/k 4)” value (hippocampus, conventional SA) was 24.8 ± 1.8 and the “DV f (K 1/k 2)” value (hippocampus, conventional SA) was 0.292 ± 0.011. For the same molecule, the “K 1” value (hippocampus, conventional SA) was 0.303 ± 0.015 mL/cm^3/min, the “V T” value (hippocampus, conventional SA) was 7.44 ± 0.27 mL/cm^3 and the “k 2” value (hippocampus, conventional SA) was 1.052 ± 0.082 min⁻¹. For the same molecule, the “k 3” value (hippocampus, conventional SA) was 0.644 ± 0.051 min⁻¹, the “k 4” value (hippocampus, conventional SA) was 0.026 ± 0.001 min⁻¹ and the “BP ND (k 3/k 4)” value (hippocampus, ultra-high SA) was 38.2 ± 1.5. For the same molecule, the “DV f (K 1/k 2)” value (hippocampus, ultra-high SA) was 0.228 ± 0.008, the “K 1” value (hippocampus, ultra-high SA) was 0.320 ± 0.020 mL/cm^3/min and the “V T” value (hippocampus, ultra-high SA) was 8.93 ± 0.47 mL/cm^3. For the same molecule, the “k 2” value (hippocampus, ultra-high SA) was 1.415 ± 0.107 min⁻¹, the “k 3” value (hippocampus, ultra-high SA) was 0.784 ± 0.027 min⁻¹ and the “k 4” value (hippocampus, ultra-high SA) was 0.021 ± 0.000 min⁻¹. The “BP ND (k 3/k 4)” value (pons, conventional SA) was 8.3 ± 0.5, the “DV f (K 1/k 2)” value (pons, conventional SA) was 0.224 ± 0.011 and the “K 1” value (pons, conventional SA) was 0.271 ± 0.015 mL/cm^3/min. The “V T” value (pons, conventional SA) was 2.06 ± 0.06 mL/cm^3, the “k 2” value (pons, conventional SA) was 1.237 ± 0.122 min⁻¹ and the “k 3” value (pons, conventional SA) was 0.256 ± 0.022 min⁻¹. For the same molecule, the “k 4” value (pons, conventional SA) was 0.031 ± 0.001 min⁻¹, the “BP ND (k 3/k 4)” value (pons, ultra-high SA) was 9.8 ± 0.5 and the “DV f (K 1/k 2)” value (pons, ultra-high SA) was 0.221 ± 0.015. For the same molecule, the “K 1” value (pons, ultra-high SA) was 0.244 ± 0.004 mL/cm^3/min, the “V T” value (pons, ultra-high SA) was 2.39 ± 0.23 mL/cm^3 and the “k 2” value (pons, ultra-high SA) was 1.131 ± 0.084 min⁻¹. For the same molecule, the “k 3” value (pons, ultra-high SA) was 0.253 ± 0.011 min⁻¹, the “k 4” value (pons, ultra-high SA) was 0.026 ± 0.001 min⁻¹ and the “BP ND (k 3/k 4)” value (striatum, conventional SA) was 20.0 ± 1.1. The “DV f (K 1/k 2)” value (striatum, conventional SA) was 0.367 ± 0.015, the “K 1” value (striatum, conventional SA) was 0.278 ± 0.014 mL/cm^3/min and the “V T” value (striatum, conventional SA) was 7.7 mL/cm^3 and 7.66 ± 0.28 mL/cm^3. The “k 2” value (striatum, conventional SA) was 0.769 ± 0.061 min⁻¹, the “k 3” value (striatum, conventional SA) was 0.612 ± 0.036 min⁻¹ and the “k 4” value (striatum, conventional SA) was 0.031 ± 0.001 min⁻¹. For the same molecule, the “BP ND (k 3/k 4)” value (striatum, ultra-high SA) was 30.6 ± 1.8, the “DV f (K 1/k 2)” value (striatum, ultra-high SA) was 0.311 ± 0.021 and the “K 1” value (striatum, ultra-high SA) was 0.294 ± 0.014 mL/cm^3/min. The “V T” value (striatum, ultra-high SA) was 9.7 mL/cm^3 and 9.66 ± 0.41 mL/cm^3, the “k 2” value (striatum, ultra-high SA) was 0.972 ± 0.083 min⁻¹ and the “k 3” value (striatum, ultra-high SA) was 0.722 ± 0.043 min⁻¹. The “k 4” value (striatum, ultra-high SA) was 0.024 ± 0.001 min⁻¹, the “BP ND (k 3/k 4)” value [3] was 16.6 ± 1.6 and the “DV f (K 1/k 2)” value [3] was 0.378 ± 0.030. The “K 1” value [3] was 0.298 ± 0.021 mL/cm^3/min, the “V T” value [3] was 6.4 mL/cm^3 and 6.44 ± 0.22 mL/cm^3 and the “k 2” value [3] was 0.840 ± 0.128 min⁻¹. The “k 3” value [3] was 0.470 ± 0.031 min⁻¹, the “k 4” value [3] was 0.029 ± 0.001 min⁻¹ and the “BP ND (k 3/k 4)” value [4] was 26.1 ± 2.0. The “DV f (K 1/k 2)” value [4] was 0.321 ± 0.023, the “K 1” value [4] was 0.292 ± 0.012 mL/cm^3/min and the “V T” value [4] was 8.5 mL/cm^3 and 8.53 ± 0.47 mL/cm^3. The “k 2” value [4] was 0.933 ± 0.075 min⁻¹, the “k 3” value [4] was 0.602 ± 0.036 min⁻¹ and the “k 4” value [4] was 0.023 ± 0.001 min⁻¹. For the same molecule, the “BP ND (k 3/k 4)” value (thalamus, conventional SA) was 25.5 ± 1.2, the “DV f (K 1/k 2)” value (thalamus, conventional SA) was 0.347 ± 0.018 and the “K 1” value (thalamus, conventional SA) was 0.303 ± 0.012 mL/cm^3/min. For the same molecule, the “V T” value (thalamus, conventional SA) was 9.1 mL/cm^3 and 9.12 ± 0.37 mL/cm^3, the “k 2” value (thalamus, conventional SA) was 0.886 ± 0.064 min⁻¹ and the “k 3” value (thalamus, conventional SA) was 0.669 ± 0.033 min⁻¹. For the same molecule, the “k 4” value (thalamus, conventional SA) was 0.026 ± 0.001 min⁻¹, the “BP ND (k 3/k 4)” value (thalamus, ultra-high SA) was 38.5 ± 1.1 and the “DV f (K 1/k 2)” value (thalamus, ultra-high SA) was 0.284 ± 0.018. For the same molecule, the “K 1” value (thalamus, ultra-high SA) was 0.313 ± 0.016 mL/cm^3/min, the “V T” value (thalamus, ultra-high SA) was 11.2 mL/cm^3 and 11.15 ± 0.51 mL/cm^3 and the “k 2” value (thalamus, ultra-high SA) was 1.125 ± 0.088 min⁻¹. The “k 3” value (thalamus, ultra-high SA) was 0.817 ± 0.025 min⁻¹ and the “k 4” value (thalamus, ultra-high SA) was 0.021 ± 0.000 min⁻¹.
